Entries after “also recorded” stand apart in the source; their conditions may differ. Where a SMILES comes first, the peptide text is derived from it.
Experiments:
[1] = Effect of pH on antibacterial activity; assay type: physicochemical; details: for Residual activity: compared with antimicrobial activity before the treatment
Text: (§1) Furthermore, the antibacterial activity of pantocin wh-1 also retained nearly 100% of the initial activity within a broad pH range (pH 2–12).
(§2) The effect of various enzymes, pH, and temperature on pantocin wh-1 activity was detected as described by J.-M. Chobert et al. with a slight modification. Proteinase K, trypsin, catalase, lysozyme, DNAse, and RNAse were used to test the antibacterial activity of pantocinwh-1. To analyze the effect of different pH values on the antibacterial activity of pantocin wh-1, the sample of pantocin wh-1 was exposed to buffer with a pH value of 2–12 for 1 h at 25 °C. The effect of temperature on the anti-mycobacterial activity of pantocin wh-1 was determined by incubating pantocin wh-1 at 50 °C and 100 °C for 60 min, as well as at 121 °C for 15 min, and then detecting the bactericidal activity against M. smegmatis mc^2 155.

[2] = Effect of heat on antibacterial activity; assay type: physicochemical; details: for Residual activity: compared with antimicrobial activity before the treatment
Text: as §1
as §2, with “[…],” for “anti-mycobacterial activity of pantocin wh-1 was determined by incubating pantocin wh-1 at 50 °C and 100 °C for 60 min,”

M. bovis BCG = assay type: cell-based; design: key: -: no inhibitory activity; +: Inhibit the growth of less than 10% amount of the initial bacteria; ++: Inhibit the growth of less than 50% amount of the initial bacteria; +++: Inhibit the growth of initial bacteria completely; details: medium 7H9
S. suis = assay: Antimicrobial spectrum, microporous dilution method; assay type: cell-based, Streptococcus suis
Procedure: (§3) In this paper, the microporous dilution method was used to detect the antibacterial spectrum of pantocin wh-1 against Gram-negative and -positive bacteria. […] The time kill studies were determined over 8 h with M. smegmatis mc^2 155 being exposed to 0.5, 1, 2, or 4 × MIC of pantocin wh-1. […] At 2 × MIC and 4 × MIC, pantocin wh-1 caused bacterial eradication was completed approximately after 4 h.
(§4) The antibacterial activity of the pantocin wh-1 was detected by the microscale optical density assay (MODA) method. Briefly, 90 μL of the dilutions of pantocin wh-1, 100 μL 2 × 7H9 medium, and 10 μL of a log phase indicator strain were co-incubated in the 96-well plate at 37 °C for 48 h. For control groups, 90 μL of the dilutions of pantocin wh-1 were replaced by an equal volume of sterile water. After incubation, the 96 well microplate was measured by a microplate reader at a 600 nm wavelength (Biotek synergyH1, Biotek, Winooski, VT, USA). The amount of pantocin wh-1 produced by P. dispersa W18 was determined using two fold dilutions. […] The results were expressed in AU/mL. The MIC was defined as the last dilution of pantocin wh-1 sufficient to prevent indicator strain growth in vitro.

S. pyogenes = assay: as above; assay type: cell-based; design: key: -: no inhibitory activity; +: Inhibit the growth of less than 10% amount of the initial bacteria; ++: Inhibit the growth of less than 50% amount of the initial bacteria; +++: Inhibit the growth of initial bacteria completely; details: medium BHI
Procedure: as §3, §4

Feces Enterococcus = assay: as above; assay type: cell-based; design: key: -: no inhibitory activity; +: Inhibit the growth of less than 10% amount of the initial bacteria; ++: Inhibit the growth of less than 50% amount of the initial bacteria; +++: Inhibit the growth of initial bacteria completely; details: medium BHI
Procedure: as §3, §4

S. aureus 21A = assay: as above; assay type: cell-based; design: key: -: no inhibitory activity; +: Inhibit the growth of less than 10% amount of the initial bacteria; ++: Inhibit the growth of less than 50% amount of the initial bacteria; +++: Inhibit the growth of initial bacteria completely; details: medium LB
Procedure: as §3, §4

Bacillus cereus = assay: as above; assay type: cell-based; design: key: -: no inhibitory activity; +: Inhibit the growth of less than 10% amount of the initial bacteria; ++: Inhibit the growth of less than 50% amount of the initial bacteria; +++: Inhibit the growth of initial bacteria completely; details: medium LB
Procedure: as §3, §4

[3] = as above; assay type: cell-based; design: key: -: no inhibitory activity; +: Inhibit the growth of less than 10% amount of the initial bacteria; ++: Inhibit the growth of less than 50% amount of the initial bacteria; +++: Inhibit the growth of initial bacteria completely; details: White aureus 8799, medium LB
Procedure: as §3, §4

S. aureus B31 = assay: as above; assay type: cell-based; design: key: -: no inhibitory activity; +: Inhibit the growth of less than 10% amount of the initial bacteria; ++: Inhibit the growth of less than 50% amount of the initial bacteria; +++: Inhibit the growth of initial bacteria completely; details: S. aureus B31, medium LB
Procedure: as §3, §4

S. aureus B30 = assay: as above; assay type: cell-based; design: key: -: no inhibitory activity; +: Inhibit the growth of less than 10% amount of the initial bacteria; ++: Inhibit the growth of less than 50% amount of the initial bacteria; +++: Inhibit the growth of initial bacteria completely; details: S. aureus B30, medium LB
Procedure: as §3, §4

S. aureus AM025 = assay: as above; assay type: cell-based; design: key: -: no inhibitory activity; +: Inhibit the growth of less than 10% amount of the initial bacteria; ++: Inhibit the growth of less than 50% amount of the initial bacteria; +++: Inhibit the growth of initial bacteria completely; details: S. aureus AM025, medium LB
Procedure: as §3, §4

S. aureus N315 = assay: as above; assay type: cell-based; design: key: -: no inhibitory activity; +: Inhibit the growth of less than 10% amount of the initial bacteria; ++: Inhibit the growth of less than 50% amount of the initial bacteria; +++: Inhibit the growth of initial bacteria completely; details: S. aureus N315, medium LB
L .monocytogenes = assay: as above; assay type: cell-based, Listeria monocytogenes
Procedure: as §3, §4

trypsin = assay: Effect of enzymes on antibacterial activity: trypsin; assay type: in vitro ADME
Text: as §1, §2

## CSCC[C@@H]1NC(=O)[C@H](C(C)C)NC(=O)[C@H](Cc2c[nH]c3ccccc23)NC(=O)[C@H](C(C)C)NC(=O)[C@H](C)NC(=O)[C@H](CS)NC(=O)[C@H](CC(N)=O)NC(=O)[C@H](Cc2ccccc2)NC(=O)CNC(=O)[C@H](Cc2ccc(O)cc2)NC(=O)CNC(=O)[C@H](Cc2ccccc2)NC(=O)[C@H](C(C)C)NC(=O)[C@H](Cc2ccc(O)cc2)NC(=O)[C@H](CS)NC(=O)[C@H](Cc2c[nH]c3ccccc23)NC1=O [pantocin wh-1] (cyclo(AVWVMWCYVFGYGFNC))
[1]; broad pH range (pH 2–12)
  retained initial antibacterial activity: ~100%
[1]; pH2-6, buffer 1 h at 25 °C
  Residual activity: 90%
[1]; pH6-8, buffer 1 h at 25 °C
  Residual activity: 100%
[1]; pH8-12, buffer 1 h at 25 °C
  Residual activity: 85%
[2]; Heat 50℃/ 30 min
  Residual activity: 100%
[2]; Heat 100℃/ 30 min
  Residual activity: 90%
[2]; Heat 121℃/ 15 min
  Residual activity: 72%
[2]; autoclaving at 121 °C for 30 min
  retained activity: 72%
[2]; incubation at 100 °C for 30 min
  heat stability: heat stable
M. bovis BCG
  Inhibition activity: +++
S. suis; S. suis, medium BHI
  Inhibition activity: + (Inhibit the growth of less than 10% amount of the initial bacteria)
S. suis; Streptococcus suis
  inhibitory activity: partial inhibitory activity
S. pyogenes
  Inhibition activity: -
Feces Enterococcus
  Inhibition activity: -
S. aureus 21A
  Inhibition activity: -
Bacillus cereus
  Inhibition activity: -
[3]
  Inhibition activity: -
S. aureus B31
  Inhibition activity: -
S. aureus B30
  Inhibition activity: -
S. aureus AM025
  Inhibition activity: -
S. aureus N315
  Inhibition activity: -
L .monocytogenes; L .monocytogenes, medium BHI
  Inhibition activity: + (Inhibit the growth of less than 10% amount of the initial bacteria)
L .monocytogenes; Listeria monocytogenes
  inhibitory activity: partial inhibitory activity
trypsin; trypsin
  inhibitory activity after trypsin: not completely inactivated; also recorded: partial sensitivity
trypsin; trypsin treatment, compared with antimicrobial activity before the treatment
  Residual activity: 27%

From paper PMC7036871, “Identification and Characterization of pantocin wh-1, a Novel Cyclic Polypeptide Produced by Pantoea dispersa W18” (Molecules, 2020)
